US20010047090A1, “VANILREP1 polynucleotides and VANILREP1 polypeptides” (priority 1998, published 2001)

Experiments:
[1] = target: T1, VANILREP1 (Homo sapiens, UniProt Q8NER1, K571I/M315I/M572C); test: Two-electrode voltage-clamp recordings in Xenopus laevis oocytes injected with VANILREP1 cDNA; assay type: cell-based
T1 construct: expressed in transfected cells; host or cells: Xenopus laevis oocytes (nuclear injection of cDNA)
Protocol: (§1) Xenopus laevis oocyte removal and dissociation were performed. Injections of cDNA for […]1 were made into the nuclei of defolliculated oocytes (1.5ng cDNA/oocyte). After injection the oocytes were incubated between 19-22° C. in modified Barth's solution (MBS) plus gentamycin (0.1mg/ml, pH 7.4) and used for electrophysiological recordings within 2-4 days.
(§2) For electrophysiological recordings oocytes were placed in a recording chamber and continuously perfused with a solution containing in mM: NaCl 88, KCI 1, NaHCO3 2.4, HEPES 15, MgCI2 1, BaCI2 0.1. (14 ml min^−1). Solution was applied using large bore tubing (internal diameter 1.5mm) which facilitated rapid solution exchange half-time 350 -1000 ms). Oocytes were held under voltage clamp at −60mV using the two-electrode voltage-clamp technique. Electrodes were low resistance (0.5-3 MΩ) and were filled with 3 M KCI.
(§3) Currents were evoked in response to application of capsaicin applied through the perfusion system until the maximum current amplitude was reached.

[2] = target: T2, VANILREP1 (Homo sapiens, UniProt Q8NER1); test: as above; assay type: cell-based; details: oocytes expressing VANILREP1, held at −60mV; capsaicin over a range of concentrations; FIG. 1
T2 construct: expressed in transfected cells; host or cells: Xenopus laevis oocytes (nuclear injection of cDNA)
Protocol: as §1, §2, §3

T1 sequence (Q8NER1 whole entry M315I/K571I/M572C): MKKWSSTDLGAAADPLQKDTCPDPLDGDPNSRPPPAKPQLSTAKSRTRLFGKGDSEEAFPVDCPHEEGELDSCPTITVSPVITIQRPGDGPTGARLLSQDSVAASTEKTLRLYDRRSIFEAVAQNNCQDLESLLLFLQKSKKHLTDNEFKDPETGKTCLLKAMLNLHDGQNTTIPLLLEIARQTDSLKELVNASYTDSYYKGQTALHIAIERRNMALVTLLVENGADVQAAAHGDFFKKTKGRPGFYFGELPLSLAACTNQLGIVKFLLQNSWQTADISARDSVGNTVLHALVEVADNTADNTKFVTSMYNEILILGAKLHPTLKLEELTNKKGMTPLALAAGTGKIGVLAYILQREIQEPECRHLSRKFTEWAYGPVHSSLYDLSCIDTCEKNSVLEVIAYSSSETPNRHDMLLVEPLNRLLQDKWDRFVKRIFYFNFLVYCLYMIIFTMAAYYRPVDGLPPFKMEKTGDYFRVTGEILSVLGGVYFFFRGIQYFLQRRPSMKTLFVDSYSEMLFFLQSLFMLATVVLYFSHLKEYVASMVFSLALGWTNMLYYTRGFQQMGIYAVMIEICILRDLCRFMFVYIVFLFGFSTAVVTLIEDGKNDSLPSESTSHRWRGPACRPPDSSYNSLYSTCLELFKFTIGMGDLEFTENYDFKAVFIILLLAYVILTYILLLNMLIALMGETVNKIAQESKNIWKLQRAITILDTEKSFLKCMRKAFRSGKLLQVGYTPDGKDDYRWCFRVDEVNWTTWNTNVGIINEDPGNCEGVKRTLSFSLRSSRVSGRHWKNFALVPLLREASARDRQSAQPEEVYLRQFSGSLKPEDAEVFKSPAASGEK
T2 sequence (Q8NER1 whole entry M315I/K571I/M572C): as above

SMILES | inhibition of the capsaicin evoked response ([1]; capsazepine 10uM against capsaicin 1uM, oocytes expressing VANILREP1, FIG. 2) | reversibility of the inhibition of the capsaicin evoked response ([1]; capsazepine 10uM, capsaicin 1uM, extended washing) | currents evoked in response to application of capsaicin [2]
Oc1cc2c(cc1O)CN(C(=S)NCCc1ccc(Cl)cc1)CCC2 [capsazepine] | inhibition | reversible with extended washing | –
COc1cc(CNC(=O)CCCC/C=C/C(C)C)ccc1O [capsaicin] | – | – | currents evoked
